Test results taken from patent US8895599B2, “Lipoprotein lipase-activating compositions comprising benzene derivates” (Otsuka Pharmaceutical Factory, Inc., priority 2008, dated 2014).
Each block holds one compound with its values, some of them ahead of it.

What was measured:
[1] = Therapeutical effect on olive oil-induced triglyceride hyperlipidemia models; assay type: in vivo; details: once a day for one week, SD rats, 2 h after olive oil
Protocol: Test of Therapeutical Effect on Olive Oil-Induced Triglyceride Hyperlipidemia Models
To conduct this test, 6-week-old SD rats (purchased from Charles River Japan) were used.
According to the body weight of the test rats when they were 5 weeks old, the test rats were divided into test groups and a control group with 6 rats per group.
A predetermined amount of each compound prepared in the Examples was measured and placed in an agate mortar. While 5% aqueous gum arabic solution was gradually introduced to the mortar, the compound was uniformly ground and suspended. Test samples were prepared by further adding 5% aqueous gum arabic solution gradually. Subsequently, these test samples were subjected to ultrasonic washing for 10 minutes to homogenize. Test samples were prepared as and when necessary.
The rats of the test groups were orally administered with the compounds of the invention such that rats received the compounds in an amount of 10, 30, or 100 mg/kg. The compounds of the invention were formulated as 5% gum arabic suspensions as described above.
The rats of the control group were orally administered with 5% aqueous gum arabic solution (not containing the compounds of the invention) in an amount of 5 ml/kg body weight. Administration was conducted once a day continuously for one week at a specific time of day after the rats reached 6 weeks of age. This test was performed under non-fasting conditions (rats had free access to feed and water), and the rats were fasted after the final administration of the compounds or 5% aqueous gum arabic solution.
Two hours after the final administration, olive oil was orally administered to the rats from both groups in an amount of 3 ml/kg body weight.
Two hours after the olive oil administration, blood was collected from the abdominal aorta of the rats of the respective groups using a heparinized syringe. The plasma was centrifugally separated from the blood at a temperature of 4° C., and the triglyceride level of the plasma was measured. A Hitachi 7170 automatic analyzer was used as the measuring instrument. Using the values measured from the test groups and control group, the decrease (%) in plasma triglyceride level was calculated according to the following equation: Decrease (%) in plasma triglyceride concentration=(1−E/C)×100 wherein E represents the average plasma triglyceride level in each test group; and C represents the average plasma triglyceride level in the control group.

[2] = Anti-obesity test using Zucker fatty rats; assay type: in vivo; details: 100 mg/kg oral, once a day over 4 weeks, relative to control group
Description: Anti-Obesity Test Using Zucker Fatty Rats
Zucker fatty rats are obese rats discovered by Zucker et al., in 1961 as mutants among 13 M rats, which are a hybrid between 13C and M rats. These rats (fa/fa) start to appear distinctly obese from normal broods around the age of 3 weeks. As they age, the weight difference between the fatty rats and normal rats increases. Zucker fatty rats are currently kept by a variety of organizations as simple obesity models, and are readily obtainable.
This test was performed using this rat model to evaluate the anti-obesity action of the compounds of the invention. The preparation method of test samples and the test procedures are described below:
The test samples were prepared in the same manner as in Test Example 2.
Zucker fatty rats and lean rats (both from Charles River Japan) were purchased at the age of 5 weeks. They were divided into groups (10 rats per group) according to body weight when they reached 6 weeks old. After acclimatization, the administration of test samples was initiated when the rats reached 8 weeks old. Test samples were orally administered using an oral gavage so that the compounds of the invention contained in the test samples were given in an amount of 100 mg/kg body weight (test sample dosage: 5 ml/kg body weight). The test samples were administered once a day over 4 weeks at a specific time of day.
As a control, a group of rats were administered with the same amount of 5% aqueous gum arabic solution (5 ml/kg body weight) instead of the test samples.
The rats of all groups were weighed on the last day of administration. The average body weight of the rats of each test group was compared with the average body weight (standard weight) of the rats of the control group to obtain the weight variations (differences). The weight differences were expressed as percentages in relation to the standard weight. The values thus calculated are referred to as “weight change %”. When a weight difference is negative relative to the standard weight, weight change % is shown with “−” (minus).
During the test period, the rats of the respective groups had free access to rat feed (“CRF-1”, manufactured by Oriental Yeast, Co., Ltd.) and water (tap water).

human LPL mRNA = experiment: Test for increase in LPL mRNA expression (luciferase assay, HTB-92/p387/p383 cell line); assay type: cell-based; details: 120 h, HTB-92/p387/p383 cells, 5 days
Description: Pharmacological Test 1 Test for Increase in LPL mRNA Expression
A luciferase assay was employed to simply and quickly detect an increase in human LPL mRNA. The principle of the assay is as follows:
Luciferase emits light when reacted with luciferine (substrate). The expression of LPL mRNA is controlled by 5′-UTR and 3′-UTR (promoter regions) of the LPL gene. By introducing the promoter regions of the LPL gene into a commercially available plasmid (for example, that produced by Clonetics Corp.) to produce a plasmid (reporter plasmid) that stably expresses luciferase in human cells, such a plasmid expresses luciferase only under conditions in which LPL mRNA can increase. Therefore, when the substrate is introduced to the expression system and the amount of luciferase expression (luciferase activity) is quantified as the extent of chemiluminescence, the amount of LPL mRNA expression can be estimated.
The test herein was performed as follows: Using a plasmid for the luciferase assay manufactured by Clontech, wherein human LPL 5′-UTR (Enerback, S., et al., Mol. Cell. Biol. 12 (10) (1992): 4622-4633) and 3′-UTR (Wion, K. L., et al., Science 235 (1987): 4796, 1638-1641) had been inserted, human-derived liposarcoma cell line SW872 (ATCC Accession No. HTB-92) was transformed to prepare an HTB-92/p387/p383 cell line, which stably expresses luciferase.
This HTB-92/p387/p383 cell line was introduced into a 225 cm^2 culture flask furnished with a culture medium and cultured at 37° C. in the absence of CO2 until reaching confluence. Leibovitz's L-15 culture medium (containing 10% FBS, 1% GlutaMaxII, 10 μg/ml streptomycin, 1 μg/ml puromycin, 250 μg/ml hygromycin B) was used as the culture medium. After reaching confluence, the cells were collected, plated on 384-well plates to have 20000 cells/well, and cultured with 50 μl/well of the culture medium under the same conditions as above (37° C., absence of CO2). After 3 days of culturing, the culture medium was replaced by 50 μl/well phenol-red-free DMEM (containing 10% FBS, 1% GlutaMax, 10 U/ml penicillin, 10 μg/ml streptomycin, 1 μg/ml puromycin, 250 μg/ml hygromycin, 1 μM dexamethasone, 0.5 μM IBMX; differentiation medium), and the cells were cultured for 5 more days at 37° C. in the presence of CO2 to differentiate.
Furthermore, the culture medium was replaced by a 50 μl/well medium containing a compound of the invention (compound prepared in an Example) as a test substance wherein the compound had been conditioned with DMSO to a specific concentration selected from 10^−4 M to 3×10^−10M. The cells were cultured for 5 days at 37° C. in the presence of CO2.
After 5 days of culturing, a luciferase substrate solution (manufactured by Promega Corporation) was introduced to each well in an amount of 30 μl/well. The cells were left to stand 10 minutes at room temperature, and luciferase activities were measured by a luminometer (a microplate scintilltion counter; The Wallac MicroBeta Trilux, manufactured by Perkin Elmer, Inc.).
Cells that had been cultured and differentiated in a differentiation medium prepared by adding 0.1% DMSO to the above-mentioned DMEM medium (differentiation medium) not containing phenol red were used as a control (i.e., cultured and differentiated for 5 days and then stimulated for 5 days). The luciferase activity of these control cells were measured as above. The EC50 value (the concentration of test substance that can increase the amount of LPL mRNA expression over the control by 50%, unit: M) was calculated based on the straight line obtained by plotting the results of the tests performed using the test substances at varying concentrations. The maximum induction (Max. Ind. values) was calculated according to the following equation: Max. Ind. Value=Lt/Lc wherein Lt represents the maximum luciferase activity occurred in response to test substance stimulation; and Lc represents the value indicating the luciferase activity of the control.

LPL = experiment: Test for LPL activity-increasing effect in normal rats (skeletal muscle LPL activity); assay type: in vivo; details: every day for 1 week, SD rats, soleus muscle, 4 h after administration
Protocol: Test for LPL Activity-Increasing Effect in Normal Rats
6-week-old SD rats (purchased from Charles River Japan) were used as subjects. The rats were divided into groups according to body weight at the age of 5 weeks. The rats in each test group were orally administered with a 5% gum arabic suspension in an amount of 5 ml/kg of body weight, the suspension containing the test compound of the invention in such an amount that the dose of the compound of the invention became 30 mg/kg of body weight in one group and 100 mg/kg of body weight in another group. The rats in a control group were orally administered with a 5% gum arabic suspension (not containing the test compound of the invention) in an amount of 5 ml/kg of body weight. Each sample suspension was orally administered every day at a specific time of day for 1 week starting when the rats reached the age of 6 weeks.
Four hours after the administration of the sample suspension, skeletal muscle tissues of the rats were collected, then freeze-clamped and stored under liquid nitrogen. LPL activity in the skeletal muscle tissues was measured by the following method.
The soleus muscle was homogenized in a chilled solution of 0.05 mol/L NH4OH—NH4Cl buffer (pH 8.5) containing 0.5 U/mL heparin at 1 mL/100 mg of tissue wet weight. After standing on ice for 60 min with vigorous mixing at intervals of 15 min, the homogenate was centrifuged at 3000 rpm and 4° C. for 10 min and the supernatant was separated.
The substrate solution was prepared by mixing 2 μCi of glycerol tri[1-^14C]oleate, 0.133 g of unlabeled triolein, 0.9 mL of 1% Triton X-100, and 0.9 mL of 4% bovine serum albumin. in 0.2 mol/L Tris-HCl buffer (pH 8.6) and 10.2 mL of 0.2 mol/L Tris-HCl buffer (pH 8.6). The mixture was emulsified by sonication on ice for 3 min.
In a glass test tube, 0.1 mL of the tissue extract, 0.05 mL of heat-inactivated rat serum and 0.15 mL of 4% bovine serum albumin in 0.2 mol/L Tris-HCl buffer (pH 7.4) were mixed. Enzyme reaction was started by adding 0.2 mL of the substrate solution and was carried out for 30 min. at 37° C.
The reaction was stopped by addition of 2 mL of 1.5 mol/L H2SO4/2-propanol (1:40, v/v), and 1 mL of distilled water and 3 mL of hexane were added into the test tube. After vigorously shaking for 10 min. at room temperature, the test tube was centrifuged for 10 min. at 3000 rpm.
The upper layer (3.5 mL) was collected in a new test tube and mixed with 1 mL of 0.1 mol/L KOH.
The test tube was vigorously shaken for 10 min. at room temperature and then centrifuged for 10 min. at 3000 rpm.
After removing the upper layer, 1 mL of the lower layer (water phase) was transferred into a vial for counting, neutralized with 50 μL of 1.3 mol/L HCl and mixed with 4 mL of scintillator. The radioactivity was measured using a liquid scintillation counter.
The LPL activity increase (%) was calculated from the measured values of LPL activity in the control group and test groups according to the following formula: LPL activity increase (%)=(Test group average value)/(Control group average value)×100−100

melting point: 128 to 129.5 °C
EC50 (human LPL mRNA; concentration that increases LPL mRNA expression over the control by 50%): 6.3 µM
Structure (SMILES): COc1cc(-c2cn3ccccc3n2)ccc1OCc1ccccc1 [Example 1, 2-(4-benzyloxy-3-methoxyphenyl)imidazo[1,2-a]pyridine]
Decrease in plasma triglyceride level (%) ([1]; 10 mg/kg oral): 26%
Decrease in plasma triglyceride level (%) ([1]; 30 mg/kg oral): 50%
Decrease in plasma triglyceride level (%) ([1]; 100 mg/kg oral): 76%
Weight Change (%) [2]: −8%
maximal fold induction (human LPL mRNA; Max. Ind. Value=Lt/Lc, maximum luciferase activity over control): 3

melting point: 126 to 128 °C
Structure (SMILES): COc1cc(-c2cn3ccsc3n2)ccc1OCc1ccc(Cl)cc1 [Example 23, 6-[4-(4-chlorobenzyloxy)-3-methoxyphenyl]imidazo[2,1-b]thiazole]
Decrease in plasma triglyceride level (%) ([1]; 10 mg/kg oral): 66%
Decrease in plasma triglyceride level (%) ([1]; 30 mg/kg oral): 78%
Decrease in plasma triglyceride level (%) ([1]; 100 mg/kg oral): 77%
Increase of skeletal muscle LPL activity compared to control (%) (LPL; 30 mg/kg oral): 18%
Increase of skeletal muscle LPL activity compared to control (%) (LPL; 100 mg/kg oral): 15%

Structure (SMILES): COc1cc(-c2c[nH]c(-c3ccc(C(F)(F)F)cc3)n2)ccc1OCc1ccccc1.Cl [Example 95, 4-(4-benzyloxy-3-methoxyphenyl)-2-(4-trifluoromethylphenyl)imidazole]
Decrease in plasma triglyceride level (%) ([1]; 10 mg/kg oral): 28%
Decrease in plasma triglyceride level (%) ([1]; 30 mg/kg oral): 65%
Decrease in plasma triglyceride level (%) ([1]; 100 mg/kg oral): 81%
Weight Change (%) [2]: −15%
Increase of skeletal muscle LPL activity compared to control (%) (LPL; 30 mg/kg oral): 13%
Increase of skeletal muscle LPL activity compared to control (%) (LPL; 100 mg/kg oral): 25%
melting point: 247 to 249 °C
